Data as given in PMC5566973 (Frontiers in Pharmacology, 2017).
Like-named read-outs stand apart in the source and are kept apart here.

Assays:
OATPs = assay: in vitro; settings: human, Caco-2, ER, Caco-2, 2 μM, + ES 0.05 mM (OATPs)
Procedure: (§1) Caco-2, MDCK and MDCK-MRP2 cells were donated by Prof. Yan Xie and Yueming Ma from Shanghai University of Traditional Chinese Medicine. The cells were grown in culture dishes (Corning® Costar, Cambridge, MA, USA) using DMEM supplemented with 10% FBS, 1% NEAA and 1% penicillin-streptomycin solution. The cells were cultured in 5% CO2 and […] with 90% relative humidity at 37°C. The medium was replaced every other day during incubation. The cells were passaged every 3–4 days between 70 and 80% confluence at a 1:5 split ratio using 0.25% trypsin-EDTA. For the transport experiments, the cells from passages between 30 and 45 were seeded at 1 × 10^5 cells/cm^2 onto permeable polycarbonate inserts (0.45 μm pore size, seeding surface of 0.6 cm^2, Millipore, MA, USA) in 24-well plastic plates. The media in the culture plates were changed every other day for the first week after seeding and were replaced daily afterward. […] The cells were used for the transport experiments 21–28 (Caco-2) or 5–7 (MDCK and MDCK-MRP2) days after seeding, and only monolayers with a TEER-value above 420 Ω cm^2 were used during the studies.
(§2) The apical (AP) and basolateral (BL) sides are typical of polarized Caco-2, MDCK and MDCK-MRP2 epithelial cells. Before the experiments, the polarized cell monolayers were washed twice with warm HBSS solution and subsequently preincubated (37°C, 30 min). Afterward, HBSS solution on both sides of the cell monolayers was removed using a mini desktop vacuum pump. […] The final DMSO concentration in the HBSS or drug mixture was below 0.5%. The monolayers were incubated at 37°C, and 100 μL samples were taken at 30, 60, 90, and 120 min from the acceptor compartment and immediately replaced with the same volume of prewarmed fresh blank HBSS. TEER measurements for assessing the membrane integrity took place before and after the experiments.
(§3) The apparent permeability coefficients (Papp) and ER were calculated as Equations (2) and (3): […]
(§4) where dQ/dt is the steady-state flux, A is the membrane surface area, and C0 is the initial drug concentration in the donor compartment. PappBA is the Papp-value measured in BL to AP direction and PappAB is the Papp-value measured in AP to BL direction. It indicated the involvement of an active transport process when the ER-value is above 1.5 (Hubatsch et al., [2007]).

[1] = tested on: ATP (adenosine triphosphate); assay: Bidirectional transport in MDCK cell monolayers with selective transporter inhibitors or substrates; type: in vitro ADME, canine; settings: dog, with NaN3 10 mM, + NaN3 10 mM (ATP), read-out: ER
Procedure: as §1, §2, §3, §4

BCRP = assay: as above; type: in vitro ADME, canine; settings: dog; for efflux ratio at 120 min, 2 μM: read-out: ER
Procedure: as §1, §2, §3, §4

MDCK cell monolayers = assay: as above; type: in vitro ADME, canine; settings: 2 μM
Procedure: as §1, §2, §3, §4

MDR1 = assay: as above; type: in vitro ADME, canine; settings: dog; for efflux ratio at 120 min, 2 μM: read-out: ER
Procedure: as §1, §2, §3, §4

MRP2 [2] = assay: as above; type: in vitro ADME, canine; settings: dog, read-out: ER
Procedure: as §1, §2, §3, §4

Na+/K+-ATPase = assay: as above; type: in vitro ADME, canine; settings: dog, with sodium vanadate 0.05 mM (50 μM), + Sodium vanadate 0.05 mM (Na^+)
Procedure: as §1, §2, §3, §4

OATs = assay: as above; type: in vitro ADME, canine; settings: dog, with cimetidine 0.05 mM (50 μM), + Cimetidine 0.05 mM (OATs)
Procedure: as §1, §2, §3, §4

OCTs/OCTNs = assay: as above; type: in vitro ADME, canine; settings: dog, with TEA 5 mM, + TEA 5 mM (OCTs/OCTNs)
Procedure: as §1, §2, §3, §4

SGLT1 = assay: as above; type: in vitro ADME, canine; settings: dog, with phloridzin 0.5 mM, + Phloridzin 0.5 mM (SGLT1), read-out: ER
Procedure: as §1, §2, §3, §4

MRP2 [3] = assay: Western blot analysis of MRP2 protein expression in Caco-2 cells; type: cell-based, human; settings: 48 h, 1, 2, and 5 μM
Procedure: The Caco-2 cells were seeded into 6-well plates at a density of 1 × 10^5 cells/mL and cultured for 24 h. […] Protein lysate was collected by centrifugation at 12,000 rpm at 4°C for 10 min, and the total protein content was determined using BCA protein assay kit. Proteins were then mixed with a quarter volume of loading buffer and heated at 100°C for 5 min. Approximately 20 μg of the total protein content was separated by SDS-PAGE through an 8% acrylamide gel and transferred to PVDF membranes. After washing with PBST, the membrane was blocked with 5% fat-free milk in PBST for 1 h at room temperature (RT) and then incubated with anti-MRP2 (1:500) and anti-GAPDH (1:5,000) overnight at 4°C. Afterwards, the membranes were rinsed with PBST and incubated with HRP-conjugated anti-rabbit (1:5,000) secondary antibody for 2 h at RT. After complete washing with PBST, the protein bands were visualized with ECL prime kit (GE Healthcare, NA, UK).

[4] = with apigenin 0.025 mM (25 μM), + Apigenin 0.025 mM (BCRP)
[5] = Control (no inhibitor or substrate)
[6] = with quinidine 0.1 mM (100 μM), + Quinidine 0.1 mM (MDR1)
[7] = with verapamil 0.1 mM (100 μM), + Verapamil 0.1 mM (MDR1)

SMILES: COc1ccc2c3c([nH]c2c1)C(C)=NCC3 [Harmaline]
- efflux ratio (OATPs): 1.12
- efflux ratio at 120 min, 2 μM [1]: 1.4
- efflux ratio at 120 min, 2 μM (BCRP; with Ko143 0.01 mM (10 μM), + Ko143 0.01 mM (BCRP)): 1.16
- Papp B→A at 120 min, 2 μM (BCRP; [4]): 23.7 ± 1.11 ×10⁻⁶ cm/s
- efflux ratio at 120 min, 2 μM (BCRP; [4]): 1.16
- Modulatory effect (MDCK cell monolayers; + Apigenin 0.025 mM (BCRP)): −
- PappAB (MDCK cell monolayers; + Apigenin 0.025 mM (BCRP)): 20.44 ± 2.19 1 × 10^−6 cm/s
- Modulatory effect (MDCK cell monolayers; + Cimetidine 0.05 mM (OATs)): −
- Modulatory effect (MDCK cell monolayers; + ES 0.05 mM (OATPs)): −
- PappBA (MDCK cell monolayers; + ES 0.05 mM (OATPs)): 20.89 ± 0.79 1 × 10^−6 cm/s
- Modulatory effect (MDCK cell monolayers; + Gly-Sar 10 mM (PEPT1)): −
- Modulatory effect (MDCK cell monolayers; + Ko143 0.01 mM (BCRP)): −
- PappAB (MDCK cell monolayers; + Ko143 0.01 mM (BCRP)): 20.08 ± 0.41 1 × 10^−6 cm/s
- PappBA (MDCK cell monolayers; + Ko143 0.01 mM (BCRP)): 23.37 ± 0.73 1 × 10^−6 cm/s
- Modulatory effect (MDCK cell monolayers; + MK571 0.05 mM (MRP2)): −
- PappAB (MDCK cell monolayers; + MK571 0.05 mM (MRP2)): 19.66 ± 0.65 1 × 10^−6 cm/s
- PappBA (MDCK cell monolayers; + MK571 0.05 mM (MRP2)): 22.57 ± 0.14 1 × 10^−6 cm/s
- Modulatory effect (MDCK cell monolayers; + NaN3 10 mM (ATP)): +
- PappAB (MDCK cell monolayers; + NaN3 10 mM (ATP)): 16.22 ± 0.84^* 1 × 10^−6 cm/s
- PappBA (MDCK cell monolayers; + NaN3 10 mM (ATP)): 22.78 ± 1.65 1 × 10^−6 cm/s
- Modulatory effect (MDCK cell monolayers; + Phloretin 0.3 mM (MCTs)): −
- PappAB (MDCK cell monolayers; + Phloretin 0.3 mM (MCTs)): 20.34 ± 0.71 1 × 10^−6 cm/s
- PappAB (MDCK cell monolayers; + Phloridzin 0.5 mM (SGLT1)): 15.96 ± 0.96^* 1 × 10^−6 cm/s
- PappBA (MDCK cell monolayers; + Phloridzin 0.5 mM (SGLT1)): 20.59 ± 1.19 1 × 10^−6 cm/s
- Modulatory effect (MDCK cell monolayers; + Probenecid 0.2 mM (MRP2)): −
- PappAB (MDCK cell monolayers; + Probenecid 0.2 mM (MRP2)): 21.01 ± 2.16 1 × 10^−6 cm/s
- PappBA (MDCK cell monolayers; + Probenecid 0.2 mM (MRP2)): 21.86 ± 1.21 1 × 10^−6 cm/s
- Modulatory effect (MDCK cell monolayers; + Quinidine 0.1 mM (MDR1)): −
- Modulatory effect (MDCK cell monolayers; + Sodium vanadate 0.05 mM (Na^+)): +
- Modulatory effect (MDCK cell monolayers; + TEA 5 mM (OCTs/OCTNs)): +
- Modulatory effect (MDCK cell monolayers; + Verapamil 0.1 mM (MDR1)): −
- PappAB (MDCK cell monolayers; + Verapamil 0.1 mM (MDR1)): 20.96 ± 1.30 1 × 10^−6 cm/s
- PappAB (MDCK cell monolayers; [5]): 20.36 ± 1.82 1 × 10^−6 cm/s
- PappBA (MDCK cell monolayers; [5]): 21.03 ± 2.11 1 × 10^−6 cm/s
- Papp A→B at 120 min, 2 μM (MDR1; [6]): 20.1 ± 0.76 ×10⁻⁶ cm/s
- Papp B→A at 120 min, 2 μM (MDR1; [6]): 22.5 ± 1.12 ×10⁻⁶ cm/s
- efflux ratio at 120 min, 2 μM (MDR1; [6]): 1.12
- Papp B→A at 120 min, 2 μM (MDR1; [7]): 21.9 ± 2.64 ×10⁻⁶ cm/s
- efflux ratio at 120 min, 2 μM (MDR1; [7]): 1.05
- efflux ratio at 120 min, 2 μM (MRP2 [2]; with MK571 0.05 mM (50 μM), + MK571 0.05 mM (MRP2)): 1.15
- efflux ratio at 120 min, 2 μM (MRP2 [2]; with probenecid 0.2 mM (200 μM), + Probenecid 0.2 mM (MRP2)): 1.04
- Papp A→B at 120 min, 2 μM (Na+/K+-ATPase): 16.2 ± 1.45 ×10⁻⁶ cm/s
- Papp B→A at 120 min, 2 μM (Na+/K+-ATPase): 20.4 ± 0.22 ×10⁻⁶ cm/s
- efflux ratio at 120 min, 2 μM (Na+/K+-ATPase; read-out: ER): 1.26
- Papp A→B at 120 min, 2 μM (OATs): 19.2 ± 1.29 ×10⁻⁶ cm/s
- Papp B→A at 120 min, 2 μM (OATs): 19.2 ± 1.33 ×10⁻⁶ cm/s
- efflux ratio at 120 min, 2 μM (OATs; read-out: ER): 1
- Papp A→B at 120 min, 2 μM (OCTs/OCTNs): 16.5 ± 1.1 ×10⁻⁶ cm/s
- Papp B→A at 120 min, 2 μM (OCTs/OCTNs): 22.8 ± 0.29 ×10⁻⁶ cm/s
- efflux ratio at 120 min, 2 μM (OCTs/OCTNs; read-out: ER): 1.38
- efflux ratio at 120 min, 2 μM (SGLT1): 1.29
- effect on the expression of MRP2 (MRP2 [3]): no effect
